Experimental data from ChEMBL document CHEMBL1146747, “Novel lopinavir analogues incorporating heterocyclic replacements of six-member cyclic urea--synthesis and structure-activity relationships” (Bioorg Med Chem Lett, 2004).

Experiments:
[1] = molecular target: Human immunodeficiency virus type 1 protease (Human immunodeficiency virus 1) (UniProt Q72874); assay: Inhibitory activity (0.5 nM) against Protease
MT4 = assay: Tested for cytopathic effect of HIVIIIB in MT-4 cells in presence of 50% human serum; format: functional, cell-based

Structure (SMILES)	inhibition [1]	EC50 (MT4)
Cc1cccc(C)c1OCC(=O)N[C@@H](Cc1ccccc1)[C@@H](O)C[C@H](Cc1ccccc1)NC(=O)[C@H](C(C)C)N1C(=O)CCC1=O	58%	2510 nM
Cc1cccc(C)c1OCC(=O)N[C@@H](Cc1ccccc1)[C@@H](O)C[C@H](Cc1ccccc1)NC(=O)[C@H](C(C)C)N1CCNC1=O	93%	70 nM
Cc1cccc(C)c1OCC(=O)N[C@@H](Cc1ccccc1)[C@@H](O)C[C@H](Cc1ccccc1)NC(=O)[C@H](C(C)C)N1CCOC1=O	87%	110 nM
Cc1cccc(C)c1OCC(=O)N[C@@H](Cc1ccccc1)[C@@H](O)C[C@H](Cc1ccccc1)NC(=O)[C@H](C(C)C)N1CCN=C1S	63%	3800 nM
Cc1cccc(C)c1OCC(=O)N[C@@H](Cc1ccccc1)[C@@H](O)C[C@H](Cc1ccccc1)NC(=O)[C@H](C(C)C)N1CCCC1=O	87%	310 nM
Cc1cccc(C)c1OCC(=O)N[C@@H](Cc1ccccc1)[C@@H](O)C[C@H](Cc1ccccc1)NC(=O)[C@H](C(C)C)N1CCCOC1=O	85%	270 nM
Cc1cccc(C)c1OCC(=O)N[C@@H](Cc1ccccc1)[C@@H](O)C[C@H](Cc1ccccc1)NC(=O)[C@H](C(C)C)N1CCC(=O)NC1=O	100%	140 nM
Cc1cccc(C)c1OCC(=O)N[C@@H](Cc1ccccc1)[C@@H](O)C[C@H](Cc1ccccc1)NC(=O)[C@H](C(C)C)N1CCNC(=O)C1=O	73%	3050 nM
Cc1cccc(C)c1OCC(=O)N[C@@H](Cc1ccccc1)[C@@H](O)C[C@H](Cc1ccccc1)NC(=O)[C@H](C(C)C)N1CCCN(C)C1=O	80%	1060 nM
Cc1cccc(C)c1OCC(=O)N[C@@H](Cc1ccccc1)[C@@H](O)C[C@H](Cc1ccccc1)NC(=O)[C@H](C(C)C)N1CCCNC1=O [LOPINAVIR]	–	100 nM
